We go through 1 compound from patent publication US8409552B2, “Anthranillic acid amides and derivatives thereof as cosmetic and pharmaceutical active compounds” (Symrise AG, priority 2002, dated 2013).

Broadly, the inhibition is the percentage by which the read-out fell short of the control. Higher therefore signals strong suppression.

Assay [1] concerns mast cells. The note with it: cited from earlier work.
For assay [2], the system named is Mast cells from the peritoneal tissue of rats. As to the kind of experiment: Inhibition of substance P-induced release of histamine from mast cells. The note with it: Rattus norvegicus, Mast cell, 2 min; 50 ppm synthetic substance; substance P 10 μM, 37° C.; based on histamine content of cells stimulated with substance P. Format: cell-based, rat. The procedure: Stock solutions: avenanthramides 2 to 19 (structural formulae: see Table 1a) and dianthramides 20-29 (structural formulae: see Table 1b); concentration: 1% in ethanol; storage before use at 4° C.) Mast cells from the peritoneal tissue of rats were isolated by centrifuging on metrizamide and stimulated with substance P (10 μM). […] The synthetically prepared avenanthramides and dianthramides of the Formulae 2 to 29 (cf. […] Test system: The final test solutions were incubated for 2 minutes in the presence of substance P and of the reference substance (CaCl2) or of the particular sample to be tested (incubation temperature: 37° C.). Cells that had been incubated in the absence of substance P and reference or sample substance served as blank. The reaction solutions were first freed from cell constituents by centrifuging. The histamine present in the supernatant liquor was then converted to a derivative with OPT and the fluorescence of the solutions was determined photometrically (fluorometer Cytofluor 2350). […] The values for the various avenanthramides are given in Table 2 as % inhibition based on the histamine content of cells stimulated with substance P without the addition of inhibitors.

The subject of another assay is rat mast cells. The note with it: oral application, dose of 200 mg/kg; cited from earlier work.
In assay [3] the test system is mast cells. As to the kind of experiment: Substance P-induced release of histamine from mast cells (Hachisuka et al.). As to conditions: 10^−3 M converted with molecular weight 327. It counts as cell-based. The source says: As Komatsu et al report, tranilast inhibits the antigen-(DNP ascaris; monoclonal IgE antibody with 2,4-dinitrophenyl-specificity) induced release of histamine from mast cells in the concentration range of 10^−3 to 10^−5 M. It was possible to achieve 50% inhibition of the histamine release at a concentration of approximately 10^−4 M. On the other hand, the influence of other anthranilic acid amides on the inhibition of the release of histamine from mast cells was not described in the publication. Hachisuka et al. (Arch. Dermatol. Res. Vol. 280, p. 158-162; 1988) investigated the influence of various active compounds on the inhibition of the substance P-induced release of histamine from mast cells. Here the activity of disodium chromogylcate (sic), ketotifen and tranilast was compared. […] Other anthranilic acid amides were not investigated in more detail within the framework of this research work either.
The comparatively low activity of tranilast agrees with the research carried out by Hachisuka et al. (Arch Dermatol Res Vol. 280, p. 158-162; 1988). […] Apparently, the alkylation of the vicinal hydroxyl groups in the cinnamic acid part or dihydrocinnamic acid part is accompanied by a significant reduction in activity.

Assay [4] deals with mast cells. As to conditions: Hachisuka et al. 1988; read-out: concentration for 50% inhibition of the substance P-induced histamine release; cited from earlier work.

Values after ≈ are worked out from the molar mass of the structure shown. Read-outs that look alike come from different tables or passages of the source.

Regarding `COc1ccc(/C=C/C(=O)Nc2ccccc2C(=O)O)cc1OC` [substance 15, N-(3,4-dimethoxy-cinnamoyl)anthranilic acid], the “concentration range inhibiting antigen-induced release of histamine” value in the assay on mast cells [1] (DNP ascaris, monoclonal IgE antibody with 2,4-dinitrophenyl-specificity) is on record as 10^−3 to 10^−5 M. Moreover, the IC50 was about 100 µM in the assay with mast cells [1] (antigen-induced (DNP ascaris), read-out: concentration for 50% inhibition of the histamine release); 327 µg/mL (≈ 999 µM) in the assay with mast cells [3] (Mast cell, read-out: concentration for 50% inhibition of the substance P-induced histamine release); about 1000 µM in the assay on mast cells [4]. Also, 50 µg/mL produced 21% inhibition in assay [2]. Moreover, in the assay on rat mast cells, the “inhibition of antigen-induced destruction of rat mast cells” value was 46.1%. The “concentration for 50% inhibition of the substance P-induced histamine release” value in the assay on mast cells [3] is reported as 327 ppm.
